Values of other authors, collected in patent EP2168584A1, “PHARMACEUTICAL COMPOSITION COMPRISING THE COMBINATION OF A TRIAZOLOBENZODIAZEPINE AND A SELECTIVE SEROTONIN REUPTAKE INHIBITOR” (World Trade Import-Export, WTIE A.G., priority 2007, dated 2009).
Read-outs that look alike come from different tables or passages of the source.

Tests used:
[1] = relative to the therapeutic activity of Alprazolam

## Cc1nnc2n1-c1ccc(Cl)cc1C(c1ccccc1)=NC2 [Alprazolam]
human, in vivo
  half-life of plasma elimination, range: 6.3 to 26.9 h
human, in vivo, po
  Maximum plasma concentrations are obtained (time after administration): 1 to 2 h
Human serum proteins
  bound to human serum proteins: 80%

## CNCCC(Oc1ccc(C(F)(F)F)cc1)c1ccccc1 (stereo not drawn) [Fluoxetine]
Plasma proteins
  degree of fixation of plasma proteins: especially high

## Fc1ccc([C@@H]2CCNC[C@H]2COc2ccc3c(c2)OCO3)cc1 [Paroxetine]
Elderly and severe hepatic failure patients
  elimination half-life: ≤ 36 h
first-step metabolism
  oral bioavailability: 50%
human, in vivo
  elimination half-life: 21 h
Mainly in the liver, inactive metabolites
  dose metabolized: More than 95%
Plasma proteins
  degree of fixation of plasma proteins: especially high
Plasma proteins; plasma
  binds to plasma proteins: 95%

## CN[C@H]1CC[C@@H](c2ccc(Cl)c(Cl)c2)c2ccccc21 [Sertraline]
Plasma proteins
  degree of fixation of plasma proteins: especially high

## OCc1nnc2n1-c1ccc(Cl)cc1C(c1ccccc1)=NC2 [alpha-hydroxy-alprazolam]
[1]
  biological activity of metabolite: approximately to half of the therapeutic activity of Alprazolam
